Results taken from paper PMC6981454, “Promising 2,6,9-Trisubstituted Purine Derivatives for Anticancer Compounds: Synthesis, 3D-QSAR, and Preliminary Biological Assays” (International Journal of Molecular Sciences, 2019).
Read-outs that look alike come from different tables or passages of the source.

How the values were obtained:
Type in all cases: cell-based, human
CFPAC-1 = experiment: MTT cytotoxicity assay, 72 h
Description: (§1) In our study, the human cancer cell lines used were CFAPC- 1 (pancreatic adenocarcinoma); NCI-H460 (large cell lung); HL-60 (acute promyelocytic leukaemia); CACO2 (colorectal adenocarcinoma); HCT-116 (colorectal carcinoma); K562 (chronic myeloid leukaemia); MCF-7 (breast adenocarcinoma); and MRC-5 control cells (normal fibroblasts).
(§2) CFAPC-1, NCI-H460 H1975, HL-60, HCT-116, CACO2, K562, MCF-7, and MCR-5 were grown and maintained in RPMI 1640 and DMEM F12 as appropriate with 10% fetal bovine serum, 100 UI/mL penicillin–streptomycin, and cultured al 37 °C in 5% CO2 humidified atmosphere. Control cultures were treated with dimethyl sulfoxide (1%) alone at the same concentration as in the purine derivatives treatment. Cell viability was determined by trypan blue dye exclusion. Cell numbers were counted in hemocytometer by light microscopy.
(§3) Cytotoxicity assays were performed by using the MTT reduction method as described in the literature. Briefly, cancer cell lines were plated in a flat-bottom 96-wells plate at 1 × 10^4 cells per well density. Then, the cells were incubated with synthetized compounds at different concentrations (from 0.1 to 100 µM) in 200 µL of 10% fetal bovine serum-RPMI or EMEM culture medium at 37 °C for 72 h. Then, 10 µL of MTT was added at a final concentration of 0.5 mg/mL, incubated at 37 °C for 4 h, and then solubilized with 10% sodium dodecyl sulphate (SDS) in 0.1 mM HCl and incubated overnight at 37 °C. Formazan formation was measured at 570 nm in a multi-well reader (StatFax 4200).

HL-60 = experiment: MTT cytotoxicity assay, 72 h; details: for Experimental pIC50 (HL-60): -logIC50 in molar concentration
Description: as §1, §2, §3

NCI-H460 = experiment: MTT cytotoxicity assay, 72 h; details: for Experimental pIC50 (NCI-H460): -logIC50 in molar concentration
Description: as §1, §2, §3

MCF-7 = experiment: MTT cytotoxicity assay, 72 h; details: MTT, 72 h, IC50 ± SD
Description: as §1, §2, §3

K562 = experiment: MTT cytotoxicity assay, 72 h; details: MTT, 72 h, IC50 ± SD
Description: as §1, §2, §3

HCT-116 = experiment: MTT cytotoxicity assay, 72 h
Description: as §1, §2, §3

CACO2 = experiment: MTT cytotoxicity assay, 72 h
Description: Cytotoxicity assays were performed by using the MTT reduction method as described in the literature [23, 37]. Briefly, cancer cell lines were plated in a flat-bottom 96-wells plate at 1 × 10^4 cells per well density. Then, the cells were incubated with synthetized compounds at different concentrations (from 0.1 to 100 µM) in 200 µL of 10% fetal bovine serum-RPMI or EMEM culture medium at 37 °C for 72 h. Then, 10 µL of MTT was added at a final concentration of 0.5 mg/mL, incubated at 37 °C for 4 h, and then solubilized with 10% sodium dodecyl sulphate (SDS) in 0.1 mM HCl and incubated overnight at 37 °C. Formazan formation was measured at 570 nm in a multi-well reader (StatFax 4200).

MRC-5 = experiment: MTT cytotoxicity assay, 72 h, normal control cells; details: normal fibroblasts
Description: as §1, §2, §3

HL-60 cells = experiment: Cell viability by propidium iodide flow cytometry; details: HL-60, 50 μM, 24 h, PI staining
Description: Next, in order to determinate the cell death type induced by the most promising compounds, we performed a flow cytometry analysis of cell viability in cell line HL-60 treated with the most promising compounds (selected according to their IC50 values and SI). The HL-60 cancer cells were chosen due to their sensitivity to prepared compounds. […] As a preliminary apoptosis filter, propidium iodide (PI) staining was used through flow cytometry analysis which discriminated a population of viable cells impermeable to PI (PI negative) from necrotic cells PI-permeable (PI positive) and apoptotic cells (the difference of the previous two). The results are shown in Figure 7, illustrating that all purine derivatives tested induced apoptosis on HL-60 cells. Around 40% of apoptotic cells were detected in a culture treated with compounds 7a and 7i, 30% by 7e, 7g, and 7h and 70% by 7d and 7j. […] (For dot plots, see Supplementary Information Figures S1–S3.)
Cell viability was analyzed by flow cytometry as previously described. In this assay, after setting the baseline to exclude cell debris, cells impermeable to propidium iodide (PI negative) are considered as viable. Two populations of PI-permeable dead cells are distinguished based on fluorescence intensity, corresponding to either hypodiploid apoptotic cells or necrotic cells with intact DNA. Here, HL60 cells were incubated with concentrations of 50 µM of each compound for 24 h at 37 °C. Cells were harvested and stained with 10 µg/mL of propidium iodide to determine cell viability. Samples containing roughly 1 × 10^4 cells were evaluated by flow cytometry (FACScanto II; Becton Dickinson, Mountain View, CA) and analyzed using FCS Express v6 software. Three independent biological replicates were performed.

[1] = MTT, 72 h, IC50 ± SD, read-out: IC50 HL-60
[2] = MTT, 72 h, IC50 ± SD, read-out: IC50 NCI-H460
[3] = Homo sapiens, CFPAC-1, IC50 ± SD
[4] = Homo sapiens, HL-60, 72 h, MTT, 72 h, IC50 ± SD, read-out: IC50 HL-60
[5] = Homo sapiens, HL-60, -logIC50 in molar concentration, Table S1, read-out: Experimental pIC50 (HL-60) (converted)
[6] = Homo sapiens, NCI-H460, 72 h, MTT, 72 h, IC50 ± SD, read-out: IC50 NCI-H460
[7] = Homo sapiens, HCT-116, IC50 ± SD
[8] = Homo sapiens, Caco-2, IC50 ± SD
[9] = Homo sapiens, NCI-H460, -logIC50 in molar concentration, Table S2, read-out: Experimental pIC50 (NCI-H460) (converted)

Molecule	IC50 (CFPAC-1; IC50 ± SD) [µM]	Experimental pIC50 (HL-60) (HL-60; Table S1) [M]	IC50 (HL-60; [1]) [µM]	IC50 (NCI-H460; [2]) [µM]	IC50 (MCF-7) [µM]	IC50 (K562) [µM]	IC50 (HCT-116; IC50 ± SD) [µM]	IC50 (CACO2; IC50 ± SD) [µM]	IC50 (MRC-5; IC50 ± SD) [µM]	IC50 (CFPAC-1; [3]) [µM]	IC50 (HL-60; [4]) [µM]	IC50 (NCI-H460; [6]) [µM]	IC50 (HCT-116; [7]) [µM]	IC50 (CACO2; [8]) [µM]	IC50 (MRC-5; Homo sapiens, MRC5, IC50 ± SD) [µM]	other results
CCn1cnc2c(-c3ccc(OC(F)(F)F)cc3)nc(NCC3CCCCC3)nc21 [4c, N-(cyclohexylmethyl)-9-ethyl-6-(4-(trifluoromethoxy)phenyl)-9H-purin-2-amine]	67 ± 1	4.6021	25 ± 5.4	64 ± 2	> 25	> 25	> 50	> 100	60 ± 1	–	–	–	–	–	–	Experimental pIC50 (NCI-H460) (NCI-H460; Table S2): 4.1938 M
CCCn1cnc2c(-c3ccc(OC(F)(F)F)cc3)nc(NC3CCCC3)nc21 [4e, N-cyclopentyl-9-propyl-6-(4-(trifluoromethoxy)phenyl)-9H-purin-2-amine]	> 100	4.7447	18 ± 4	> 100	> 25	> 25	> 50	> 100	> 100	–	–	–	–	–	–	–
CCCn1cnc2c(-c3ccc(OC(F)(F)F)cc3)nc(NC3CCCCC3)nc21 [4f, N-cyclohexyl-9-propyl-6-(4-(trifluoromethoxy)phenyl)-9H-purin-2-amine]	69 ± 1	5.0088	9.8 ± 1.5	> 100	> 25	> 25	> 50	> 100	68 ± 1	–	–	–	–	–	–	–
CCCn1cnc2c(-c3ccc(OC(F)(F)F)cc3)nc(NCC3CCCCC3)nc21 [4g, N-(cyclohexylmethyl)-9-propyl-6-(4-(trifluoromethoxy)phenyl)-9H-purin-2-amine]	98 ± 5	4.6778	21 ± 5	72 ± 2	> 25	> 25	> 50	> 100	> 100	–	–	–	–	–	–	Experimental pIC50 (NCI-H460) (NCI-H460; Table S2): 4.1427 M
CCCn1cnc2c(-c3ccc(OC(F)(F)F)cc3)nc(NC3CCCCCC3)nc21 [4h, N-cycloheptyl-9-propyl-6-(4-(trifluoromethoxy)phenyl)-9H-purin-2-amine]	–	–	–	–	–	–	–	–	–	> 100	14 ± 1	> 100	> 50	> 100	> 100	IC50 (HL-60; [5]): 14 µM; IC50 (MCF-7; Homo sapiens, MCF7, 72 h): > 25 µM; IC50 (K562; Homo sapiens, K562, 72 h): > 25 µM
Clc1nc(N2CCN(c3ccccn3)CC2)c2ncn(C3CCCC3)c2n1 [7b, 2-Chloro-9-cyclopentyl-6-(4-(pyridin-2-yl)piperazin-1-yl)-9H-purine]	–	–	–	–	–	–	–	–	–	> 100	> 50	> 100	> 50	> 100	> 100	IC50 (MCF-7; Homo sapiens, MCF7, 72 h): 5.07 ± 0.9 µM; IC50 (K562; Homo sapiens, K562, 72 h): 3.06 ± 0.54 µM
Clc1nc(N2CCC(c3ccccc3)CC2)c2ncn(C3CCCC3)c2n1 [7e, 2-Chloro-9-cyclopentyl-6-(4-phenylpiperidin-1-yl)-9H-purine]	–	–	–	–	–	–	–	–	–	> 100	3 ± 0.6	11 ± 1	> 50	> 100	> 100	IC50 (HL-60; [5]): 3 µM; Selectivity Index (SI) MRC-5/HL-60 (HL-60; IC50 in MRC-5 / IC50 in HL-60): > 33.3; IC50 (NCI-H460; [9]): 11 µM; Selectivity Index (SI) MRC-5/NCI-H460 (NCI-H460; IC50 in MRC-5 / IC50 in NCI-H460): > 9.1; apoptotic cells (HL-60 cells): ~30%
Clc1nc(N2CCN(c3ccccc3)CC2)c2ncn(C3CCCC3)c2n1 [7f, 2-Chloro-9-cyclopentyl-6-(4-phenylpiperazin-1-yl)-9H-purine]	–	–	–	–	–	–	–	–	–	> 100	1.3 ± 0.5	6.71 ± 0.23	> 50	> 100	> 100	IC50 (HL-60; [5]): 1.3 µM; IC50 (NCI-H460; [9]): 6.71 µM; IC50 (MCF-7; Homo sapiens, MCF7, 72 h): 6.13 ± 0.25 µM; IC50 (K562; Homo sapiens, K562, 72 h): 4.22 ± 0.27 µM
N.N.[Cl][Pt][Cl] [Cisplatin, reference compound]	3.16 ± 0.1	–	6.2 ± 0.2	4.77 ± 0.13	10.9 ± 0.8	4.67 ± 0.38	3.89 ± 1.3	–	6.78 ± 0.18	–	–	–	–	–	–	IC50 (NCI-H460; MTT, 72 h, IC50 ± SD, listed as cisplatin, read-out: IC50 NCI-H460): 4.8 µM; apoptotic cells (HL-60 cells): 66%
N-cycloheptyl-9-ethyl-6-(4-(trifluoromethoxy)phenyl)-9H-purin-2-amine [4d]	> 100	4.6778	21 ± 1	> 100	> 25	> 25	> 50	> 100	> 100	–	–	–	–	–	–	–
N-cyclohexyl-9-ethyl-6-(4-(trifluoromethoxy)phenyl)-9H-purin-2-amine [4b]	> 100	–	> 50	> 100	> 25	> 25	> 50	> 100	> 100	–	–	–	–	–	–	–
